Assays:
MPO = test: Study DG-031-201: ionomycin-induced MPO release in whole blood ex vivo; parameters: species or system human; conditions: difference visit 2 to 5; 500 and 750 mg/day vs placebo
Experimental: Genet. 2004). Apart from FLAP, allele A of the SNP SG12S25 in the LTA4 hydrolase gene, another gene in the LT pathway, is also associated with MI, as described in PCT application no. PCT/US03/32556 and PCT/US04/30582 incorporated by reference.
Patients who met the study eligibility criteria were enrolled and randomized into 3 different dose-level groups: (1) 64 patients on 250 mg/day therapy with DG-031 (250 mg q.d.), vs placebo; (2) 64 patients on 500 mg/day therapy with DG-031 (250 mg b.i.d.) vs placebo; and (3) 63 patients on 750 mg/day therapy with DG-031 (250 mg t.i.d.) vs placebo. […] All patients received 3 tablets per day. Treatment periods, 4 weeks in duration each, were separated by a 2-week washout period. The placebo tablets were identical in shape, color, form and taste to the active tablets except that they contained no active drug ingredients. Treatment with DG-031 or placebo was in addition to the subject's standard care, including all medications and treatment plan as prescribed by the subject's cardiologist prior to enrolment. […]
All data were analyzed according to a pre-established statistical analysis plan (SAP) and by intention-to-treat (ITT). […] The difference between DG-031 and placebo treatment was the primary outcome, assessed separately for each of the biomarkers. […]

[1] = Steady-state DG-031 plasma concentrations and half-life, studies DG-031-201 and DG-031-203; format: in vivo, human; conditions: humans
Text: Maintaining the minimum concentration using TIED dosing requires only about 70% of the drug that is required for a BID schedule. TID dosing is a more efficient process in terms of drug utilization when the goal is maintaining concentrations above a minimum threshold. It has the added advantage of reducing a patient's total exposure to the drug.

LTB4 = test: Exposure-response analysis: estimated reduction in stimulated LTB4 by DG-031 daily dose; format: in vivo, human; conditions: for Estimated Percent LTB4 Reduction by DG-031 Daily Dose, Mean: stimulated LTB4, mean model prediction from studies DG-031-201 and DG-031-203
Experimental: Administration of DG-031 500 mg BID reduced LTB4 levels to the target 35% reduction, as measured in the ionophore-stimulation assay described in Example 1. The estimated DG-031-induced reduction in stimulated LTB4 levels was based on all the relevant data observed in the DG-031-201 and DG-031-203 studies. The control baseline was 7.8%. The data presented in Table 14 are the mean and the 5th and 95th percentiles based on the mean model prediction (the 90% confidence interval on the estimated LTB4 response).
The pharmacokinetic characteristics of the tested DG-031 formulation result in an observed mean peak concentrations of 8.8 μg/mL and mean trough concentrations of 4.3 μg/mL. (Table 18) The characteristics of the tested formulation leads to prolonged drug absorption that minimizes the peak to trough fluctuation in DG-031 plasma concentration and LTB4 response.

## O=C(O)[C@@H](c1ccc(OCc2ccc3ccccc3n2)cc1)C1CCCC1 [DG-031, (R)-(+)-alpha-cyclopentyl-4-(2-quinolinylmethoxy)-Benzeneacetic acid]
MPO
  Carry-over effect, MPO in whole blood, corr. for wbc: 0.01
[1]
  Dominant half-life: 2.5 to 3 h
LTB4; 500 mg BID (1000 mg daily)
  Average drug exposure: 7.6 µg/mL
LTB4; 500 mg BID, 90% prediction interval −45% to −24%
  Reduction in stimulated LTB4 production: 37%
LTB4; daily dose 250
  Estimated Percent LTB4 Reduction by DG-031 Daily Dose, Mean: −8.7%
LTB4; daily dose 500
  Estimated Percent LTB4 Reduction by DG-031 Daily Dose, Mean: −19.4%
LTB4; daily dose 750
  Estimated Percent LTB4 Reduction by DG-031 Daily Dose, Mean: −28.8%
LTB4; daily dose 1000
  Estimated Percent LTB4 Reduction by DG-031 Daily Dose, Mean: −37.1%
LTB4; daily dose 1250
  Estimated Percent LTB4 Reduction by DG-031 Daily Dose, Mean: −44.5%
LTB4; daily dose 1500
  Estimated Percent LTB4 Reduction by DG-031 Daily Dose, Mean: −50.9%

— patent US20090030037A1, “Sustained Release Formulation and Dosing Schedules of Leukotriene Synthesis Inhibitor for Human Therapy” (deCODE Genetics ehf., priority 2005, published 2009)
